Molecules are shown by their SMILES. Read-outs that look alike come from different tables or passages of the source.

Holding throughout (assay): cells
Common to all, as to parameters: species or system AML cell lines (8); Secondary HTS, 10-point dose-response in triplicate, Cell Titer Glo viability, four-parameter fit EC50
(In general: Cellular ATP, detected with luciferase, serves as a proxy for viable cell number.)

For assay [1], the system named is U937. To be noted: Homo sapiens, read-out: U937.
Assay [2] deals with CMK. To be noted: Homo sapiens, read-out: CMK.
Assay [3] has as its system M07e. To be noted: M-07e, read-out: M07e.
Assay [4] concerns CMS. To be noted: read-out: CMS.
Assay [5] has as its system CHRF288-11. To be noted: read-out: CHRF288-11.
The subject of assay [6] is MOLM-13. To be noted: Homo sapiens, read-out: MOLM-13.
Assay [7] has as its system ML-2. To be noted: Homo sapiens, read-out: ML-2.
Assay [8] relates to MV4-11. To be noted: Homo sapiens, read-out: MV4-11.

Take `CCN(CCO)CCCC(C)Nc1ccnc2cc(Cl)ccc12` (stereo not shown) [HYDROXYCHLOROQUINE]: the EC50 is more than 10 µM in assay [1] (U-937, 72 h); more than 10 µM in assay [2] (CMK, 72 h); more than 10 µM in assay [3] (72 h); more than 10 µM in assay [4] (72 h); more than 10000 nM in assay [5] (72 h); more than 10 µM in assay [6] (MOLM-13, 72 h). Further, the EC50 in assay [7] (ML-2, 72 h) is more than 10 µM; in assay [8] (MV4-11, 72 h) it was more than 10 µM.
With `Cc1ccc(S(=O)(=O)/C=C/C#N)cc1` [SJ000834165, BAY 11-7082], the EC50 in assay [1] (U-937, 72 h) was 0.5 µM; in assay [2] (CMK, 72 h), 4.5 µM; in assay [3] (72 h) it was 3.3 µM; in assay [4] (72 h) it was 3.6 µM; in assay [5] (72 h) it was 1800 nM; in assay [6] (MOLM-13, 72 h), 1.3 µM. Also, the EC50 came out at 0.68 µM in assay [7] (ML-2, 72 h) and 1.8 µM in assay [8] (MV4-11, 72 h).
For `Cc1ccccc1-n1c(Cn2cnc3c(N)ncnc32)nc2cccc(C)c2c1=O` [SJ000571308, IC-87114], the EC50 in assay [1] (U-937, 72 h) is more than 10 µM; in assay [2] (CMK, 72 h), more than 10 µM; in assay [3] (72 h), more than 10 µM; in assay [4] (72 h), more than 10 µM; in assay [5] (72 h) it was more than 10000 nM; in assay [6] (MOLM-13, 72 h), more than 10 µM. Also, the EC50 in assay [7] (ML-2, 72 h) is more than 10 µM; in assay [8] (MV4-11, 72 h), more than 10 µM.
Regarding `COC(=O)[C@H](CC(C)C)NC(=O)c1ccc(NC[C@@H](N)CS)cc1-c1cccc2ccccc12` [SJ000821624, GGTI 298], the EC50 in assay [1] (U-937, 72 h) was 6.5 µM; in assay [2] (CMK, 72 h) it was more than 10 µM; in assay [3] (72 h), more than 10 µM; in assay [4] (72 h) it was more than 10 µM; in assay [5] (72 h), more than 10000 nM; in assay [6] (MOLM-13, 72 h), 6.4 µM. The EC50 in assay [7] (ML-2, 72 h) was more than 10 µM; in assay [8] (MV4-11, 72 h), 6.4 µM.
On to `COc1cc(C(=O)NC2CCN(C)CC2)c(F)cc1Nc1ncc2c(n1)N(C1CCCC1)CC(F)(F)C(=O)N2C` [TAK-960], for which the EC50 was more than 10 µM in assay [1] (U-937, 72 h); more than 10 µM in assay [2] (CMK, 72 h); more than 10 µM in assay [3] (72 h); more than 10 µM in assay [4] (72 h); more than 10000 nM in assay [5] (72 h); more than 10 µM in assay [6] (MOLM-13, 72 h). Also, the EC50 is more than 10 µM in assay [7] (ML-2, 72 h) and more than 10 µM in assay [8] (MV4-11, 72 h).
In the case of `O=c1cc(N2CCOCC2)oc2c1ccc1ccccc12` [SJ000834163, NU 7026], the EC50 is more than 10 µM in assay [1] (U-937, 72 h); more than 10 µM in assay [2] (CMK, 72 h); more than 10 µM in assay [3] (72 h); more than 10 µM in assay [4] (72 h); more than 10000 nM in assay [5] (72 h); more than 10 µM in assay [6] (MOLM-13, 72 h). The EC50 in assay [7] (ML-2, 72 h) is more than 10 µM; in assay [8] (MV4-11, 72 h) it was more than 10 µM.
In the case of `CC(C)NCCCn1c(Sc2cc3c(cc2I)OCO3)nc2c(N)ncnc21` [SJ000821568, PU-H71], the EC50 in assay [1] (U-937, 72 h) is more than 10 µM; in assay [2] (CMK, 72 h), 0.024 µM; in assay [3] (72 h) it was more than 10 µM; in assay [4] (72 h) it was 0.18 µM; in assay [5] (72 h), 170 nM; in assay [6] (MOLM-13, 72 h), 0.019 µM. Also, the EC50 in assay [7] (ML-2, 72 h) was 0.082 µM; in assay [8] (MV4-11, 72 h) it was 0.023 µM.
On to `CN(C)CCCNc1c2ccccc2nc2c1[nH]c1ccccc12` [SJ000784272, SYUIQ-5], for which the EC50 in assay [1] (U-937, 72 h) is 0.21 µM; in assay [2] (CMK, 72 h), more than 10 µM; in assay [3] (72 h), 0.54 µM; in assay [4] (72 h), 0.37 µM; in assay [5] (72 h), 1600 nM; in assay [6] (MOLM-13, 72 h), 1.6 µM. In addition, the EC50 was 1.8 µM in assay [7] (ML-2, 72 h) and more than 10 µM in assay [8] (MV4-11, 72 h).
Take `O=C(Nc1ncc([N+](=O)[O-])s1)c1ccc([N+](=O)[O-])c(Cl)c1` [SJ000834139, SM-7368]: the EC50 was 6.8 µM in assay [1] (U-937, 72 h cell viability); more than 10 µM in assay [2] (72 h cell viability); more than 10 µM in assay [3] (72 h cell viability); more than 10 µM in assay [4] (72 h cell viability); more than 10000 nM in assay [5] (72 h cell viability); more than 10 µM in assay [6] (72 h cell viability). In addition, the EC50 in assay [7] (72 h cell viability) and in assay [8] (72 h cell viability) was more than 10 µM in each case.
In the case of `CN1CCN(c2cc(C(=O)Nc3ccc4c(c3)-c3c(c(C(N)=O)nn3-c3ccc(F)cc3)CC4)c(Cl)cn2)CC1` [SJ000834153, PHA 408], the EC50 in assay [1] (U-937, 72 h) was 9.2 µM; in assay [2] (CMK, 72 h) it was more than 10 µM; in assay [3] (72 h), 5.2 µM; in assay [4] (72 h) it was more than 10 µM; in assay [5] (72 h), more than 10000 nM; in assay [6] (MOLM-13, 72 h), more than 10 µM. In addition, the EC50 is more than 10 µM in assay [7] (ML-2, 72 h) and more than 10 µM in assay [8] (MV4-11, 72 h).
As for `COc1cc2c(NC3CCN(C)CC3)nc(N3CCCN(C)CC3)nc2cc1OCCCN(C)C` [SJ000784262, UNC0224], the EC50 was more than 10 µM in assay [1] (U-937, 72 h); more than 10 µM in assay [2] (CMK, 72 h); more than 10 µM in assay [3] (72 h); more than 10 µM in assay [4] (72 h); more than 10000 nM in assay [5] (72 h); more than 10 µM in assay [6] (MOLM-13, 72 h). Also, the EC50 in assay [7] (ML-2, 72 h) is more than 10 µM; in assay [8] (MV4-11, 72 h), more than 10 µM.
For `COc1ccc([C@@]23Oc4cc(OC)cc(OC)c4[C@]2(O)[C@H](O)[C@H](C(=O)N(C)C)[C@H]3c2ccccc2)cc1` [SJ000834151, ROCAGLAMIDE A], the EC50 in assay [1] (U-937, 72 h) was 0.053 µM; in assay [2] (CMK, 72 h), 0.021 µM; in assay [3] (72 h) it was 0.031 µM; in assay [4] (72 h), 0.017 µM; in assay [5] (72 h) it was 14 nM; in assay [6] (MOLM-13, 72 h), 0.018 µM. Also, the EC50 in assay [7] (ML-2, 72 h) was 0.044 µM; in assay [8] (MV4-11, 72 h) it was more than 10 µM.
Regarding `CCCC(=O)OCOC(=O)C(C)(C)C` [PIVANEX], the EC50 in assay [1] (U-937, 72 h) was more than 10 µM; in assay [2] (CMK, 72 h) it was more than 10 µM; in assay [3] (72 h), more than 10 µM; in assay [4] (72 h) it was more than 10 µM; in assay [5] (72 h), more than 10000 nM; in assay [6] (MOLM-13, 72 h) it was more than 10 µM. Besides, the EC50 in assay [7] (ML-2, 72 h) was more than 10 µM; in assay [8] (MV4-11, 72 h) it was more than 10 µM.
With `COc1cc(O)c2c(c1)/C=C/C[C@H](O)[C@H](O)C(=O)/C=C\C[C@H](C)OC2=O` [SJ000773172, (5Z)-7-OXOZEAENOL], the EC50 in assay [1] (U-937, 72 h) was 6.6 µM; in assay [2] (CMK, 72 h), 0.37 µM; in assay [3] (72 h), 0.84 µM; in assay [4] (72 h), 7.3 µM; in assay [5] (72 h), 2100 nM; in assay [6] (MOLM-13, 72 h), more than 10 µM. Further, the EC50 in assay [7] (ML-2, 72 h) was 5.5 µM; in assay [8] (MV4-11, 72 h) it was more than 10 µM.
As for `CCc1c2c(nc3ccc(O)cc13)-c1cc3c(c(=O)n1C2)COC(=O)[C@]3(O)CC` [SJ000311679, SN-38], the EC50 is 0.0372 µM in assay [1] (U-937, 72 h); 0.0232 µM in assay [2] (CMK, 72 h); 0.0445 µM in assay [3] (72 h); more than 10 µM in assay [4] (72 h); 9.49 nM in assay [5] (72 h); 0.0056 µM in assay [6] (MOLM-13, 72 h). The EC50 is 0.00251 µM in assay [7] (ML-2, 72 h) and 0.24 µM in assay [8] (MV4-11, 72 h).
Consider `CN(c1ncccc1CNc1nc(Nc2ccc3c(c2)CC(=O)N3)ncc1C(F)(F)F)S(C)(=O)=O` [SJ000833883, PF-00562271], for which the EC50 is 3.9 µM in assay [1] (U-937, 72 h); 2.6 µM in assay [2] (CMK, 72 h); 6.2 µM in assay [3] (72 h); more than 10 µM in assay [4] (72 h); more than 10000 nM in assay [5] (72 h); more than 10 µM in assay [6] (MOLM-13, 72 h). Also, the EC50 in assay [7] (ML-2, 72 h) is 0.5 µM; in assay [8] (MV4-11, 72 h) it was more than 10 µM.
`Oc1cccc(-c2nc(N3CCOCC3)c3oc4ncccc4c3n2)c1` [SJ000574285, PIK 103]: the EC50 in assay [1] (U-937, 72 h) was 0.41 µM; in assay [2] (CMK, 72 h), 3.2 µM; in assay [3] (72 h) it was more than 10 µM; in assay [4] (72 h), more than 10 µM; in assay [5] (72 h) it was more than 10000 nM; in assay [6] (MOLM-13, 72 h), 0.94 µM. Further, the EC50 is more than 10 µM in assay [7] (ML-2, 72 h) and 1.5 µM in assay [8] (MV4-11, 72 h).

(Values after article PMC6522510 (Nature Communications, 2019).)
